From BindingDB's records for doi:10.7270/Q28P5XZM (Nmmlsc, 2011)

Molecular target: T1, General amino acid permease AGP1 (Saccharomyces cerevisiae (strain ATCC 204508 / S288c), UniProt P25376)
T1 sequence (P25376 whole entry): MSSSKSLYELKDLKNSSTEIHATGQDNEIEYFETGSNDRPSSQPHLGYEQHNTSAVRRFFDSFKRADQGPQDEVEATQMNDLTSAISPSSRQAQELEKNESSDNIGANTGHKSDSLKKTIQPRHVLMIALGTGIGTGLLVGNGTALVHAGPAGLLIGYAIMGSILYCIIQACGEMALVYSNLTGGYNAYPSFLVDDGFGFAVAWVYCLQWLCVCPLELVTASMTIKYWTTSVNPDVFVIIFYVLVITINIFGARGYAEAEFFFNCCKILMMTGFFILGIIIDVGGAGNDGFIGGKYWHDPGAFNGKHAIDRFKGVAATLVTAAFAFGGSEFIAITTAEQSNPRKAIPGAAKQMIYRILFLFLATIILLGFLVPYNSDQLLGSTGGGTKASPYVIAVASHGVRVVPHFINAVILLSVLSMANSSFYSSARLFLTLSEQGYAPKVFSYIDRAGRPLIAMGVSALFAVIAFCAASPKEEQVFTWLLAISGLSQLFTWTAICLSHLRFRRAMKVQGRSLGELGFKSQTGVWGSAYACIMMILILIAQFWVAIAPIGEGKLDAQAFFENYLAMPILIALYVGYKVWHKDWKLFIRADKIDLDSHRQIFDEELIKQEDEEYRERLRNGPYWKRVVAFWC
Experiment: analog potency on AGP1-GFP expression in yeast, SAR follow-up, cell-based, flow cytometry, S. cerevisiae, cherry pick 3 (AID 488790)
Conditions: inactive by the depositor's call

Structure (SMILES)	EC50 [µM]
Cc1ccc(C(=O)Nc2nc(-c3ccccn3)cs2)o1 [5-methyl-N-[4-(2-pyridinyl)-2-thiazolyl]-2-furancarboxamide]	775
Nc1ncnc(Nc2cc(Cl)cc(Cl)c2)c1[N+](=O)[O-] [MLS000581561]	76.4
